According to patent US4870097A, “Pharmaceutical use of derivatives of tryptophan” (priority 1984, dated 1989):

How the values were obtained:
[1] = system: guinea pig gall bladder contracted with CCK-8; assay: Anti-CCK activity on guinea pig gall bladders in vitro; assay type: biochemical; details: CCK-8 10 ng/ml, concentration antagonising 50% of contracting effect
Procedure: A longitudinal strip of guinea pig gall bladder is placed in a bath of Krebs for isolated organs at a temperature of 32° C. and oxygenated continuously with an oxygen-CO2 mixture (95-5 V/V).
The […] contractions are detected by means of a force transducer and recorded.
The gall bladder is contracted with the use of a CCK-8 solution at a concentration of 10 ng/ml; the antagonistic activity of the compounds of the invention towards the contracting effect of the CCK is determined with the use of different concentrations, the ED50 value, that is the concentration of the compound in mcg/ml capable of antagonising 50% of the contracting effect of the CCK, being determined.
The results obtained are set out in the following table which gives the compounds tested and the ED50 values which are calculated by the method of regression on a test of at least three experiments for each compound studied.

[2] = system: analgesic activity of morphine; assay: Tail Flick Test: increase in the analgesic effect of morphine; assay type: in vivo, rats; details: for percentage variation in the latency of the pain sensation, 10' / percentage variation in the latency of the pain sensation, 20' / percentage variation in the latency of the pain sensation, 30' / percentage variation in the latency of the pain sensation, 45' / percentage variation in the latency of the pain sensation, 60' / percentage variation in the latency of the pain sensation, 90' / M(10'-90') average percentage variation: compound 10 mg/kg i.p. + morphine 2 mg/kg (row Morphine: alone); for percentage variation in the latency of the pain sensation, 10' / percentage variation in the latency of the pain sensation, 20' / percentage variation in the latency of the pain sensation, 30' / percentage variation in the latency of the pain sensation, 45' / percentage variation in the latency of the pain sensation, 60' / percentage variation in the latency of the pain sensation, 90': ± S.E.; for M(10'-90') average percentage variation: mean 10'-90'; for Potency ratio relative to morphine alone: rat, in vivo
Procedure: Increase in the analgesic effect of analgesic-narcotic drugs in rats in the Tail Flick Test
The method is that described by Harris et al. (J. Pharmacol. Exp. Ther. 143 (1964) 141-148).
Male rats are used which have a weight of about 150-200 g and which have not been fasting. A point is chosen on the tail and this is irradiated by a heat source (75° C.) and the time (in seconds) for which the animal remains without moving its tail is measured.
A maximum period of time under the heat source of 8 seconds is chosen after which the animal is, in any case, removed in order to avoid tissue damage. The measurement is effected before (controls) and after treatment with the drugs.
. The percentage variation is calculated for each individual animal by the following formula: [formula] The measurements are carried out 10, 20, 30, 45, 60 and 90 minutes after treatment with the analgesics.
The results obtained are given in Table 1 which records the groups treated and the doses administered, the
average percentage variations (calculated on groups of five animals) in […]

Compound	Anti CCK-8 activity, ED50 [1]	percentage variation in the latency of the pain sensation, 10' [2]	percentage variation in the latency of the pain sensation, 20' [2]	percentage variation in the latency of the pain sensation, 30' [2]	percentage variation in the latency of the pain sensation, 45' [2]	percentage variation in the latency of the pain sensation, 60' [2]	percentage variation in the latency of the pain sensation, 90' [2]	M(10'-90') average percentage variation [2]	Potency ratio relative to morphine alone [2]
Cc1ccc(COC(=O)N[C@@H](Cc2c[nH]c3ccccc23)C(=O)O)cc1 [Compound 8]	114.3 mg/L	12.4 ± 4.9%	38.4 ± 22.2%	56.5 ± 20.3%	48.0 ± 26.1%	48.5 ± 21.5%	54.4 ± 24.7%	43.0%	1.44
CCc1ccc(COC(=O)N[C@@H](Cc2c[nH]c3ccccc23)C(=O)O)cc1 [Compound 9]	125.4 mg/L	46.7 ± 14.7%	62.2 ± 16.5%	39.6 ± 15.7%	86.9 ± 8.0%	46.7 ± 20.4%	40.8 ± 22.4%	53.8%	1.80
Cc1ccc(COC(=O)N[C@@H](Cc2c[nH]c3ccccc23)C(=O)O)cc1Cl [Compound 10]	88.5 mg/L	51.5 ± 48.9%	58.3 ± 16.5%	66.0 ± 14.1%	56.9 ± 17.0%	56.2 ± 23.5%	34.2 ± 8.4%	55.5%	1.86
N#Cc1ccc(COC(=O)N[C@@H](Cc2c[nH]c3ccccc23)C(=O)O)cc1 [Compound 11]	34.3 mg/L	53.4 ± 13.5%	80.0 ± 13.0%	90.4 ± 9.6%	84.9 ± 15.1%	55.6 ± 18.3%	50.9 ± 20.7%	72.9%	2.45
O=C(N[C@@H](Cc1c[nH]c2ccccc12)C(=O)O)c1ccc(Cl)cc1 [Compound 12]	206.0 mg/L	42.2 ± 19.4%	50.5 ± 17.0%	69.7 ± 19.8%	68.9 ± 13.4%	32.7 ± 20.1%	16.3 ± 7.4%	49.1%	1.65
O=C(N[C@@H](Cc1c[nH]c2ccccc12)C(=O)O)c1ccc(Br)cc1 [Compound 13]	158.0 mg/L	26.7 ± 5.6%	72.6 ± 13.0%	77.2 ± 10.0%	86.2 ± 8.9%	38.8 ± 11.3%	12.6 ± 9.8%	52.3%	1.75
O=C(N[C@@H](Cc1c[nH]c2ccccc12)C(=O)O)c1ccc(F)cc1 [Compound 14]	233.2 mg/L	47.9 ± 21.0%	90.2 ± 9.8%	80.0 ± 12.5%	67.7 ± 19.8%	70.5 ± 18.1%	61.5 ± 11.8%	69.6%	2.33
O=C(N[C@@H](Cc1c[nH]c2ccccc12)C(=O)O)c1ccc(I)cc1 [Compound 15]	IN (inactive up to 400 mcg/ml)	77.7 ± 13.8%	81.7 ± 12.3%	91.0 ± 9.0%	89.0 ± 11.0%	70.4 ± 17.2%	60.3 ± 12.6%	78.3%	2.63
O=C(N[C@@H](Cc1c[nH]c2ccccc12)C(=O)O)c1cccc(Cl)c1 [Compound 16]	197.5 mg/L	25.2 ± 21.8%	39.5 ± 26.1%	37.7 ± 22.9%	33.1 ± 19.9%	25.9 ± 18.1%	9.7 ± 11.9%	28.5%	0.96
O=C(N[C@@H](Cc1c[nH]c2ccccc12)C(=O)O)c1ccc(Cl)c(Cl)c1 [Compound 17]	398.0 mg/L	96.9 ± 4.1%	100.0 ± 0.0%	100.0 ± 0.0%	50.3 ± 10.1%	85.4 ± 11.5%	29.6 ± 4.5%	85.0%	2.85
Cc1ccc(C(=O)N[C@@H](Cc2c[nH]c3ccccc23)C(=O)O)cc1 [Compound 18]	IN (inactive up to 400 mcg/ml)	7.8 ± 16.1%	14.9 ± 17.1%	42.1 ± 18.3%	26.6 ± 20.5%	32.7 ± 25.9%	41.1 ± 24.3%	27.5%	0.93
CCc1ccc(C(=O)N[C@@H](Cc2c[nH]c3ccccc23)C(=O)O)cc1 [Compound 19]	135.2 mg/L	41.9 ± 12.8%	43.9 ± 19.5%	61.3 ± 18.1%	49.4 ± 19.5%	28.5 ± 17.0%	14.4 ± 12.9%	39.9%	1.34
